Test results: ChEMBL document CHEMBL3826958, “Zinc-mediated binding of a low-molecular-weight stabilizer of the host anti-viral factor apolipoprotein B mRNA-editing enzyme, catalytic polypeptide-like 3G” (Bioorg Med Chem, 2016)
Activity calls are given as the source filed them. No cut-off for these calls is given here.

Assays:
[1] = molecular target: DNA dC->dU-editing enzyme APOBEC-3G (Homo sapiens) (UniProt Q9HC16); experiment: Binding affinity to FLAG-tagged human A3G expressed in human 293T cells at 13 uM incubated for 16 hrs by streptavidin agarose based immunoblot analysis; format: cell-based
[2] = molecular target: DNA dC->dU-editing enzyme APOBEC-3G (Homo sapiens) (UniProt Q9HC16); experiment: Binding affinity to FLAG-tagged human A3G expressed in human 293T cells at 13 uM incubated for 16 hrs in presence of EDTA by streptavidin agarose based immunoblot analysis; format: cell-based

Sequence of DNA dC->dU-editing enzyme APOBEC-3G (Homo sapiens) (Q9HC16 whole entry): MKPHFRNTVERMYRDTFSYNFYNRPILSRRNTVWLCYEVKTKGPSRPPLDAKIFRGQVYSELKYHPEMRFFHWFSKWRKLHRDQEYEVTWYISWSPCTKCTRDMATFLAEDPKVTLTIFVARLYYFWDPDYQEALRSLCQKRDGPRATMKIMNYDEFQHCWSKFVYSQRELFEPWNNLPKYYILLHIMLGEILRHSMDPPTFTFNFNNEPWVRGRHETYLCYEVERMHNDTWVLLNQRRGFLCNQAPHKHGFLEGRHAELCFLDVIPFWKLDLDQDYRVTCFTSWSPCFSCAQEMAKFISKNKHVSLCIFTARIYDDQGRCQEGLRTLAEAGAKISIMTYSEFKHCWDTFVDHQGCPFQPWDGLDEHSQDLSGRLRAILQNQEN

Activity [1]	Activity [2]	SMILES
inactive		COC(=O)CCCC[C@@H]1SC[C@@H]2NC(=O)N[C@@H]21
Active	inactive	O=C(CCCC[C@@H]1SC[C@@H]2NC(=O)N[C@@H]21)NCCCCCCOC(=O)Nc1cc(CNCCS)nc(CNCCS)c1
